The record followed here is ChEMBL document CHEMBL6078616, “Seven-membered N-heterocycles as approved drugs and promising leads in medicinal chemistry as well as the metal-free domino access to their scaffolds” (Eur J Med Chem, 2024).

For one test, the system named is MCF7. The experiment in a line: Antiproliferative activity against human MCF7 cells assessed as reduction in cell viability. The format is functional, cell-based.
In the next test the target is Sphingosine kinase 1 (Homo sapiens, UniProt Q9NYA1). In words: Inhibition of SPHK1 (unknown origin).
Sequence of Sphingosine kinase 1 (Q9NYA1 whole entry): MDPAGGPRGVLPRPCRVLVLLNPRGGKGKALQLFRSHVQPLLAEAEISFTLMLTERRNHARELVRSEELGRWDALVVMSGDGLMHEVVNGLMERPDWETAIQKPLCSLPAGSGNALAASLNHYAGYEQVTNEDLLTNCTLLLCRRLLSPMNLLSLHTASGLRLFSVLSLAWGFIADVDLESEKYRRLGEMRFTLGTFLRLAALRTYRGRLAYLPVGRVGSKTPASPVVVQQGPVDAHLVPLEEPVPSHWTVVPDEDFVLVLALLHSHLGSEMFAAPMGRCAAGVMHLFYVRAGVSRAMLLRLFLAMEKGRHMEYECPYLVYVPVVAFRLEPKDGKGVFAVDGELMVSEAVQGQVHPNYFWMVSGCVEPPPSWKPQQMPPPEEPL
A further test has as its target T1, Histone deacetylase 11 (Homo sapiens, UniProt Q96DB2).
T1 sequence (Q96DB2 whole entry): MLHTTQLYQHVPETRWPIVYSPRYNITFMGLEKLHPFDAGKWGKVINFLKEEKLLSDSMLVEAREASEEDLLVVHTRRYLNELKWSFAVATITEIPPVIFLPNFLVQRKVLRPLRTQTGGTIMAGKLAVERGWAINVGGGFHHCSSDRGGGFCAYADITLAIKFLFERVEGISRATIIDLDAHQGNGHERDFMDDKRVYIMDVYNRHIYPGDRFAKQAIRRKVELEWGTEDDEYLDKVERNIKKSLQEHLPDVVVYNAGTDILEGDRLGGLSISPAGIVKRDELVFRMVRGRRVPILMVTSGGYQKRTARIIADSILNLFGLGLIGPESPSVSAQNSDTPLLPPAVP
The experiment in a line: Inhibition of HDAC11 (unknown origin).

In a further test the target is Histone deacetylase 1 (Homo sapiens, UniProt Q13547). The experiment in a line: Inhibition of HDAC1 (unknown origin).
Sequence of Histone deacetylase 1 (Q13547 whole entry): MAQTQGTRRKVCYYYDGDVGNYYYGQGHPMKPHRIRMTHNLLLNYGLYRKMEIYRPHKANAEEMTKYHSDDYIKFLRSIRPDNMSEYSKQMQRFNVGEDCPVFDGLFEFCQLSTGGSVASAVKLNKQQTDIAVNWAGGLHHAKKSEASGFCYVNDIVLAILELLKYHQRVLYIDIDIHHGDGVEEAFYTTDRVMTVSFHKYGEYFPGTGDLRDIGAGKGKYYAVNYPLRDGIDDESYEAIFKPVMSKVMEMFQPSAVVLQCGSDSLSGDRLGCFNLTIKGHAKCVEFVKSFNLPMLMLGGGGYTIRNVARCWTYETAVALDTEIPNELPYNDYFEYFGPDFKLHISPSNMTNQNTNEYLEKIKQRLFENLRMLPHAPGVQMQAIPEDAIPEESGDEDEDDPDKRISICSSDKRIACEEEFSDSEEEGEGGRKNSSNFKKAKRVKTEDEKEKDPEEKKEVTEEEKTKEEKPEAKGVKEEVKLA
For a further test, the target named is Histone deacetylase 3 (Homo sapiens, UniProt O15379). The experiment in a line: Inhibition of HDAC3 (unknown origin).
Sequence of Histone deacetylase 3 (O15379 whole entry): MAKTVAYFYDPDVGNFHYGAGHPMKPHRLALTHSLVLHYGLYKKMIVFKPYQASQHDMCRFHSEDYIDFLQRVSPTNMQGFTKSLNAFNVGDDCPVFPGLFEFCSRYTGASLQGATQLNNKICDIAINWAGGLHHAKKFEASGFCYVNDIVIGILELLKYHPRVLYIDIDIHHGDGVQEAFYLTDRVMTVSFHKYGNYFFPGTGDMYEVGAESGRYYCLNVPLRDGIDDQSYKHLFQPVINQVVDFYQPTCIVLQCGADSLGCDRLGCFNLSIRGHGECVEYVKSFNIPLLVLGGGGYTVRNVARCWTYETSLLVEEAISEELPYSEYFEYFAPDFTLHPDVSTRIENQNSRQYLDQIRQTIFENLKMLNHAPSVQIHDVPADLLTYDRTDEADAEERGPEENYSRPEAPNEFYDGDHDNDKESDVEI
Test [1] addresses T2, Polyamine deacetylase HDAC10 (Homo sapiens, UniProt Q969S8).
T2 sequence (Q969S8 whole entry): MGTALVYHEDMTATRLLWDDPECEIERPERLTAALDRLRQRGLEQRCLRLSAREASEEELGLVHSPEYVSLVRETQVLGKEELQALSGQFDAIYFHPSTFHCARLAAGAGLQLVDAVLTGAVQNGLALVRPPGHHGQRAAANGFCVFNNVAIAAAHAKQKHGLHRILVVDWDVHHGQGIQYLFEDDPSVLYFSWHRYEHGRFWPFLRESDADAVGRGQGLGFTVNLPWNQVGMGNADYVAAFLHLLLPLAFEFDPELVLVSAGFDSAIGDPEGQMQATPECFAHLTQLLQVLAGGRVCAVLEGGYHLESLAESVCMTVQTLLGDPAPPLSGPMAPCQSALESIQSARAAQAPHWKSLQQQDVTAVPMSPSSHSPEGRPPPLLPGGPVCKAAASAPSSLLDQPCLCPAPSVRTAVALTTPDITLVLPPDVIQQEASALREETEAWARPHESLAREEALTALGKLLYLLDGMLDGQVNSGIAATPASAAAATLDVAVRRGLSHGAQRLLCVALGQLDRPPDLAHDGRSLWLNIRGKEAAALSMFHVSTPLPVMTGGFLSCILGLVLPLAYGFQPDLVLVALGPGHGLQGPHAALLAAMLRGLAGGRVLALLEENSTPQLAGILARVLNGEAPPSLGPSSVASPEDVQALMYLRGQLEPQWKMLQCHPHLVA
The experiment in a line: Inhibition of HDAC10 (unknown origin).

In test [2] the target is T3, Protein deacetylase HDAC6 (Homo sapiens, UniProt Q9UBN7).
T3 sequence (Q9UBN7 whole entry): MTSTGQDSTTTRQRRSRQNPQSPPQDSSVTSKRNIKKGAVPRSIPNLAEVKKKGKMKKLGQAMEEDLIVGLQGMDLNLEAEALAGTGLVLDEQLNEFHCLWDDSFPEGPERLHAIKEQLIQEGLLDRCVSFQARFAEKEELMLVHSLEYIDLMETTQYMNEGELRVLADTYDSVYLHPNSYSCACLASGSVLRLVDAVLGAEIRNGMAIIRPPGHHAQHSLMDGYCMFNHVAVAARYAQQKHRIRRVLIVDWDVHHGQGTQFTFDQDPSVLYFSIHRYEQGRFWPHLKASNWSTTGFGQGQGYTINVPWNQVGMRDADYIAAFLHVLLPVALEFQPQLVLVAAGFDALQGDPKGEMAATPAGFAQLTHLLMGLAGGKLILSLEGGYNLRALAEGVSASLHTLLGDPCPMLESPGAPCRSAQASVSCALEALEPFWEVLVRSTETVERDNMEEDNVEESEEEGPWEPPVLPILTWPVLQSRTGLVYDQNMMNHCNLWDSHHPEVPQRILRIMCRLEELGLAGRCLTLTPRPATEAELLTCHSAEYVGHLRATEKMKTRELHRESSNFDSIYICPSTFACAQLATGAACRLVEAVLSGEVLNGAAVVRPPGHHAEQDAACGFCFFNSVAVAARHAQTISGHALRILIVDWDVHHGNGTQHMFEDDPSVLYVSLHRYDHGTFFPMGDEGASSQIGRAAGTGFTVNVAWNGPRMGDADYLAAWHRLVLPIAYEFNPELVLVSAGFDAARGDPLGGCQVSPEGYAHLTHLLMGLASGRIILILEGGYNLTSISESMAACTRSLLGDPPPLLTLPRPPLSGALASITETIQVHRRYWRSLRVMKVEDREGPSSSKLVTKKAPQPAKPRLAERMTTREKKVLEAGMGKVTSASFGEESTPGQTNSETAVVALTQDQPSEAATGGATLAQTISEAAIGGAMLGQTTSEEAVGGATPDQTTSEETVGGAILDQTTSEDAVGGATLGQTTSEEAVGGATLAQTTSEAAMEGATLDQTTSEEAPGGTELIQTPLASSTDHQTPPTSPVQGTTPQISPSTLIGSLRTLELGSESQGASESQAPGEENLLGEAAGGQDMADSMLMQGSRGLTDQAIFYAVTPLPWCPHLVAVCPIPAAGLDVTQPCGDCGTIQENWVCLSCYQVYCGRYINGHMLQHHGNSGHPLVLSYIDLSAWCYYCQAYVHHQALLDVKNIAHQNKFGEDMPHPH
In words: Inhibition of HDAC6 (unknown origin).

A further test has as its target T4, Histone deacetylase 8 (Homo sapiens, UniProt Q9BY41).
T4 sequence (Q9BY41 whole entry): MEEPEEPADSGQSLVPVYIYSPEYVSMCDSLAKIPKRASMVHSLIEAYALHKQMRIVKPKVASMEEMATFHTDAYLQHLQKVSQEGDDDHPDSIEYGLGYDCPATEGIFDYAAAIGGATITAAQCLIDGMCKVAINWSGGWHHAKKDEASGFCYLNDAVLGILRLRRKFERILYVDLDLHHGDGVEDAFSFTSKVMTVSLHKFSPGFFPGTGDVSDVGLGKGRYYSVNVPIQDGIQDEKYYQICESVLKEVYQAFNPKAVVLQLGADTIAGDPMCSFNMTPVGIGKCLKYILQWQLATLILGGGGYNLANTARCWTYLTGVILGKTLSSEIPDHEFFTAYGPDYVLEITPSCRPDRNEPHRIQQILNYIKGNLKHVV
The experiment in a line: Inhibition of HDAC8 (unknown origin).

A further test deals with Histone deacetylase 5 (Homo sapiens, UniProt Q9UQL6). The experiment in a line: Inhibition of HDAC5 (unknown origin).
Sequence of Histone deacetylase 5 (Q9UQL6 whole entry): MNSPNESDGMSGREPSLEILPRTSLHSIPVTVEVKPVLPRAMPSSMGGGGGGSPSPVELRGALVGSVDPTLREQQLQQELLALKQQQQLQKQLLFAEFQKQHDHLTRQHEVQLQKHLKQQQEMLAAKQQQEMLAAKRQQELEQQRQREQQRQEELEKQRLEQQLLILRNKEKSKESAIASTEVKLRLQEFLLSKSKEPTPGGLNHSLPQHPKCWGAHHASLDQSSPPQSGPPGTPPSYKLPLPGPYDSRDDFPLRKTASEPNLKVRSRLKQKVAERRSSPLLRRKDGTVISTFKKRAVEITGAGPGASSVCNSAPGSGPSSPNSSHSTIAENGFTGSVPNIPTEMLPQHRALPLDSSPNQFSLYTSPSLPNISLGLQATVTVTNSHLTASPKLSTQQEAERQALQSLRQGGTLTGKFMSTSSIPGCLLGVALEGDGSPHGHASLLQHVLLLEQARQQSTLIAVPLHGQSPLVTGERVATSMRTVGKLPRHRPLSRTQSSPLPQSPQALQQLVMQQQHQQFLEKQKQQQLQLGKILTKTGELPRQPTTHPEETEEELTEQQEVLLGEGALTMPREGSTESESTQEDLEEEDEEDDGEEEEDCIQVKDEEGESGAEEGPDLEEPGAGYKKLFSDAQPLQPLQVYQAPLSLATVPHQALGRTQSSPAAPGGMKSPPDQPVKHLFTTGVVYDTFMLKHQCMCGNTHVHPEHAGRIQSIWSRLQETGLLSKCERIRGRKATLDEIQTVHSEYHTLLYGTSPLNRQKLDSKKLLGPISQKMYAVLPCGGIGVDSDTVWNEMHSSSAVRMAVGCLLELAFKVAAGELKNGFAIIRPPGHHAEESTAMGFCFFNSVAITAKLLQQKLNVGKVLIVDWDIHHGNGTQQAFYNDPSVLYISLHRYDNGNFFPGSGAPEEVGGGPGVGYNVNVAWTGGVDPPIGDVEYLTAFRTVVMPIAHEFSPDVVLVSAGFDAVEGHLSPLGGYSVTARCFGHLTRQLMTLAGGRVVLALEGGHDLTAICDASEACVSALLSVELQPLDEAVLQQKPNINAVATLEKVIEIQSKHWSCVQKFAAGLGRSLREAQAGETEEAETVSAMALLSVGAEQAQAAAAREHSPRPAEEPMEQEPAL
The target of the next test is Histone deacetylase 9 (Homo sapiens, UniProt Q9UKV0). In words: Inhibition of HDAC9 (unknown origin).
Sequence of Histone deacetylase 9 (Q9UKV0 whole entry): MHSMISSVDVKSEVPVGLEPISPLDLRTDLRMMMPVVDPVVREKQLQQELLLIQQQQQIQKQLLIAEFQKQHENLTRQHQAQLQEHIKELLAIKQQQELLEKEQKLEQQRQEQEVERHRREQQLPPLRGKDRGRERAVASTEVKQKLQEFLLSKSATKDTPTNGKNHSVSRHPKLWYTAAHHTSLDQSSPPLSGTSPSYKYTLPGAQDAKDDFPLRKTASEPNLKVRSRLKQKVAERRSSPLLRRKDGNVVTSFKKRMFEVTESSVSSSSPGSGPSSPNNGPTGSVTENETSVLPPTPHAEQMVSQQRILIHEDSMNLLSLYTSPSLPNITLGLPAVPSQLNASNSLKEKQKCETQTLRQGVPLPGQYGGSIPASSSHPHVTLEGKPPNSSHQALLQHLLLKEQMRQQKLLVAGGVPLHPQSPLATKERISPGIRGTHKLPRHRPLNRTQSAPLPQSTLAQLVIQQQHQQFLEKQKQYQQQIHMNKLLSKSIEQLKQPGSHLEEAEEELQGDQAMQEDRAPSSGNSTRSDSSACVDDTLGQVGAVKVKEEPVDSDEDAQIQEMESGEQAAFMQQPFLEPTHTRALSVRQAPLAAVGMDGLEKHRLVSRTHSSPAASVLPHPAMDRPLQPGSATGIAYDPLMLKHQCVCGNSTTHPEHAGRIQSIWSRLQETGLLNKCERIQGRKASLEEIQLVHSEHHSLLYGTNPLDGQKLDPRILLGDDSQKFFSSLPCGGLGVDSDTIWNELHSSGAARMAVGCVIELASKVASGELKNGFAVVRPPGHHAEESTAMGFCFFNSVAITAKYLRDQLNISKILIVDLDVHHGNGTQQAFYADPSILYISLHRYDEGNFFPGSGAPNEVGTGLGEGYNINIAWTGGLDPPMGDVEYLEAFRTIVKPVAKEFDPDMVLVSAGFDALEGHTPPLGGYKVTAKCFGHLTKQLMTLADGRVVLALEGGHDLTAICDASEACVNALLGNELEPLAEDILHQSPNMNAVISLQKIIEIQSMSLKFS
The next test deals with T5, Histone deacetylase 7 (Homo sapiens, UniProt Q8WUI4).
T5 sequence (Q8WUI4 whole entry): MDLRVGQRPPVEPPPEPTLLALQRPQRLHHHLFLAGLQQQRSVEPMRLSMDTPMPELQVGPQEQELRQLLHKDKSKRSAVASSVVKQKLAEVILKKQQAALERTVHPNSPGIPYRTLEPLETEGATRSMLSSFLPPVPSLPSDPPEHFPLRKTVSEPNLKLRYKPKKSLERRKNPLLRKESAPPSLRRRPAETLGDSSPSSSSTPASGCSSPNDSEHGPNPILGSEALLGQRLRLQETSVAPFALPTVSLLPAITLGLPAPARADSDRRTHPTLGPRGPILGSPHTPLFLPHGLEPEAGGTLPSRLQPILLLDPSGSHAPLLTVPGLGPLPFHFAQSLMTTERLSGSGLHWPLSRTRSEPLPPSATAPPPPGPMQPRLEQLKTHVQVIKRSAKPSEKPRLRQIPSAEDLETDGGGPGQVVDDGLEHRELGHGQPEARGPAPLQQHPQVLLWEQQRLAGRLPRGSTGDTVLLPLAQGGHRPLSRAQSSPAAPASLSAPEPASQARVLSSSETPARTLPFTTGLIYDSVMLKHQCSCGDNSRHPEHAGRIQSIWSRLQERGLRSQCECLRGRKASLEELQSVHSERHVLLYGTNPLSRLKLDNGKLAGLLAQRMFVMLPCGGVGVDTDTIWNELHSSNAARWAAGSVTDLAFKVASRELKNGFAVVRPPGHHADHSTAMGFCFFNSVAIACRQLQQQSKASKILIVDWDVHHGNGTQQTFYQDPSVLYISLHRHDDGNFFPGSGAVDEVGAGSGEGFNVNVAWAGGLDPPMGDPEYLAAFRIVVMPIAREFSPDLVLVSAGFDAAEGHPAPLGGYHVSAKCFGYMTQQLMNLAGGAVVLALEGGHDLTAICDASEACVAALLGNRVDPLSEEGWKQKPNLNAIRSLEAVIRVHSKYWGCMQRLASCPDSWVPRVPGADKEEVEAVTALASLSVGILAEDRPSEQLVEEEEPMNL
The experiment in a line: Inhibition of HDAC7 (unknown origin).

A further test concerns the target Histone deacetylase 2 (Homo sapiens, UniProt Q92769). The experiment in a line: Inhibition of HDAC2 (unknown origin).
The next test addresses Histone deacetylase 4 (Homo sapiens, UniProt P56524). In words: Inhibition of HDAC4 (unknown origin).
Another test addresses Vasopressin V1a receptor (Homo sapiens, UniProt P37288). In words: Inhibition of Vasopressin V1A receptor (unknown origin).
The next test concerns the target Spike glycoprotein (Severe acute respiratory syndrome coronavirus 2, UniProt P0DTC2). The experiment in a line: Binding affinity to SARS-Cov-2 Spike protein assessed as dissociation constant.

Sequence of Histone deacetylase 4 (P56524 whole entry): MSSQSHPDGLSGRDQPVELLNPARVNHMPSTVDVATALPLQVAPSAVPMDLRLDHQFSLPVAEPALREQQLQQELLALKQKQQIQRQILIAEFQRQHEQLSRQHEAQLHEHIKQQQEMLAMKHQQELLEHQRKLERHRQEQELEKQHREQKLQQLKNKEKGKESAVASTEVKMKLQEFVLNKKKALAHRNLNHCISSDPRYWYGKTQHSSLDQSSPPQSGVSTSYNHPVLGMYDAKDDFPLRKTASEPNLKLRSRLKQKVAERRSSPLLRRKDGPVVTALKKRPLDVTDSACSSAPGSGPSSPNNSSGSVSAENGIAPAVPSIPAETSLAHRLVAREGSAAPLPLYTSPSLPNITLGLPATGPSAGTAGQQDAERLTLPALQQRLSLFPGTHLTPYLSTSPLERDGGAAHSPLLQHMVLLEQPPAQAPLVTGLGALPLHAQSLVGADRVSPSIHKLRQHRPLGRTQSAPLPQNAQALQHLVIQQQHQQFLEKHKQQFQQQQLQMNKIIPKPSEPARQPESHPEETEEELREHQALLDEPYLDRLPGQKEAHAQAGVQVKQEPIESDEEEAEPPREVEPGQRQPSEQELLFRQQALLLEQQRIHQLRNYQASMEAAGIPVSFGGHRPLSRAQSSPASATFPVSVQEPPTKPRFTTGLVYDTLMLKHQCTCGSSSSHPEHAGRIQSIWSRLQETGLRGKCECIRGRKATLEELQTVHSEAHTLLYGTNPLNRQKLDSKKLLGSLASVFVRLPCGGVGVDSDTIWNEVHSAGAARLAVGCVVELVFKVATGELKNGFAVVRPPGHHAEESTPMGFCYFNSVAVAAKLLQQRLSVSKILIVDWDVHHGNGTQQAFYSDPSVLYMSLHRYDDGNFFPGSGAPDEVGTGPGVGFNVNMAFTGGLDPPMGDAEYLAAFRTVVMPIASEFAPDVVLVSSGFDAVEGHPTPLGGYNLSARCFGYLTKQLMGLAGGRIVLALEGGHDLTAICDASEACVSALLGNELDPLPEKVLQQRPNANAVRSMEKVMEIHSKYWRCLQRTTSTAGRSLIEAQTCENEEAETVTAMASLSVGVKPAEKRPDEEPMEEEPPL
Sequence of Vasopressin V1a receptor (P37288 whole entry): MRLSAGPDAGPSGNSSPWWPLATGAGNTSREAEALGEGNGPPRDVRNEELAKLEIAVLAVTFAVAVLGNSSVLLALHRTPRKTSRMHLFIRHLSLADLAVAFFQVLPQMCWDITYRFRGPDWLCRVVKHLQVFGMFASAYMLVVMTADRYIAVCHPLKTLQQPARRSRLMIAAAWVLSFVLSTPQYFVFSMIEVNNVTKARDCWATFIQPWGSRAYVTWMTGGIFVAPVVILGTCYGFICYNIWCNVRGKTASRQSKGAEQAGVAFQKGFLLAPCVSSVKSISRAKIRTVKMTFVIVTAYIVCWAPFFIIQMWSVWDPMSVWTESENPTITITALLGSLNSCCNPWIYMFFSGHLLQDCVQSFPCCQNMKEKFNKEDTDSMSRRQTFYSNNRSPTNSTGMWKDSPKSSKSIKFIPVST

Usually IC50 stands for the concentration needed to halve the response being measured. Turning to `NCCCNCCCCNCCCNC1=Nc2ccccc2CCC1`, in the test with MCF7, the IC50 was over 50 µM.
The molecule `Brc1cc2c(c3ccccc13)N1OC(C2)CC1CCc1ccccc1` (stereo not given) gave an IC50 against Sphingosine kinase 1 of over 650 µM.
Regarding `O=C(NO)c1ccc(CN2c3cc(C(F)(F)F)ccc3S(=O)(=O)C[C@H]3CCCC[C@H]32)cc1`, the IC50 on Histone deacetylase 11 was found to be 0.85 µM; against Histone deacetylase 1, 8.8 µM; against Histone deacetylase 3 it was 16 µM; in test [1], 9.4 µM; in test [2], 0.01 µM; against Histone deacetylase 8 it was 2 µM. Moreover, the concentration for half-maximal inhibition (IC50) on Histone deacetylase 5 is 22 µM; on Histone deacetylase 9, over 30 µM; at Histone deacetylase 7 it was 15 µM; on Histone deacetylase 2, 16 µM.
Consider `O=C(NO)c1ccc(CN2c3ccccc3SC[C@H]3CCCC[C@H]32)cc1`, for which the IC50 on Histone deacetylase 11 was 1.5 µM; against Histone deacetylase 1, over 30 µM; in test [1], over 30 µM; in test [2], 0.03 µM; against Histone deacetylase 8, 5.3 µM; on Histone deacetylase 5 it was 27 µM. Also, the IC50 is 25 µM at Histone deacetylase 9, over 30 µM against Histone deacetylase 7 and over 30 µM against Histone deacetylase 4.
As for `CC1C[C@]2(C)C(NCCCNCCCCNCCCN)=Nc3ccccc3[C@]2(C)N(C)c2ccccc21` (stereo not given in full), in the test on MCF7, the IC50 stood at 9.84 µM.
`Cc1ccccc1C(=O)Nc1ccc(C(=O)N2CCC[C@H](N(C)C)c3ccccc32)cc1` displayed an IC50 against Vasopressin V1a receptor of 14 µM.
`CC1Cc2c(Cl)nc(-c3ccccc3)nc2N(C)c2ccc(O)cc21` (stereo not given) showed an IC50 against Sphingosine kinase 1 of over 650 µM.
Broadly, the Kd is the concentration at which binding is half-saturated. In the case of `CN1CCCC(n2nc(Cc3ccc(Cl)cc3)c3ccccc3c2=O)CC1` (stereo not given) [AZELASTINE], the dissociation constant (Kd) at Spike glycoprotein came to 0.258 µM.
